The text below walks through data of publication PMC5146860, “Succinate production positively correlates with the affinity of the global transcription factor Cra for its effector FBP in Escherichia coli” (Biotechnology for Biofuels, 2016).

Holding throughout (experiment): isothermal titration calorimetry
In general terms: In ITC the heat of successive injections is recorded.

Assay [1] has as its target T1, Cra (catabolite repressor/activator; FruR) (Escherichia coli, UniProt P0ACP1).
T1 construct: 2IKS is effector-free regulatory domain used for docking
Particulars: 25 °C; 50 mM FBP injected into 15 μM protein (Fig. 5 legend prints 15 mM); effector-binding site.

The target in assay [2] is T2, Cra (catabolite repressor/activator; FruR) (Escherichia coli, UniProt P0ACP1, D148R/A248F/G274R).
T2 construct: 2IKS is effector-free regulatory domain used for docking
Particulars: 25 °C; 50 mM FBP injected into 15 μM protein (Fig. 5 legend prints 15 mM); effector-binding site; mutant of strain Tang1684.

Assay [3] addresses T3, Cra (catabolite repressor/activator; FruR) (Escherichia coli, UniProt P0ACP1, N73Y/D148R/G274R).
T3 construct: 2IKS is effector-free regulatory domain used for docking
Particulars: 25 °C; 50 mM FBP injected into 15 μM protein (Fig. 5 legend prints 15 mM); effector-binding site; mutant of strain Tang1688.

The target in assay [4] is T4, Cra (catabolite repressor/activator; FruR) (Escherichia coli, UniProt P0ACP1, D101R/D148R/G274R).
T4 construct: 2IKS is effector-free regulatory domain used for docking
Particulars: 25 °C; 50 mM FBP injected into 15 μM protein (Fig. 5 legend prints 15 mM); effector-binding site; mutant of strain Tang1683.

Broadly, the Kd is the equilibrium constant for the complex coming apart. A high value points to a looser complex. On to `O=P(O)(O)OC[C@H]1OC(O)(COP(=O)(O)O)[C@@H](O)[C@@H]1O` (stereo partly shown) [fructose-1,6-bisphosphate], for which the Kd worked out at 1360 ± 6.2 nM in assay [1], 728.3 ± 3.8 nM in assay [2], 809.1 ± 4.6 nM in assay [3] and 154 ± 4.3 nM in assay [4].
